For series [1], the system named is MIA PaCa-2. As to the kind of experiment: Antiproliferative activity against human MIAPaCa2 cells after 72 hrs by MTT assay. Type of series: functional, cell-based. In general terms: Tetrazolium dyes change colour on reduction, which living cells bring about.
Series [2] concerns HCT-116. As to the kind of experiment: Antiproliferative activity against human HCT116 cells over-expressing DHODH after 72 hrs by MTT assay. Type of series: functional, cell-based.
Series [3] has as its system HL-60. Kind of series: Antiproliferative activity against human HL60 cells after 72 hrs by MTT assay.
Series [4] can be described thus: Initial plasma concentration in CD-1 mouse at 10 mg/kg, iv. The class given is ADME, organism-based.
A short description of series [5]: Cmax in CD-1 mouse at 20 mg/kg, po. The class given is ADME, organism-based. Also noted: dose 20 mg/kg, route oral. The settings on record: in vivo.
A short description of series [6]: Tmax in CD-1 mouse at 20 mg/kg, po. Type of series: ADME, organism-based. The settings on record: in vivo.
Series [7] in a line: AUC (0 to last) in CD-1 mouse at 10 mg/kg, iv. The settings on record: in vivo. More on the design: dose 10 mg/kg, time 0 - last, route intravenous. The class given is ADME, organism-based.
Series [8] in a line: AUC (0 to last) in CD-1 mouse at 20 mg/kg, po. Also noted: dose 20 mg/kg, route oral, time 0 - last. Type of series: ADME, organism-based. The settings on record: in vivo.
The nature of series [9]: AUC (0 to infinity) in CD-1 mouse at 10 mg/kg, iv. The class given is ADME, organism-based. More on the design: dose 10 mg/kg, time infinity, route intravenous. The settings on record: in vivo.
Series [10] is described as follows: AUC (0 to infinity) in CD-1 mouse at 20 mg/kg, po. The class given is ADME, organism-based. More on the design: dose 20 mg/kg, time infinity, route oral. The settings on record: in vivo.
Series [11] can be described thus: Elimination half life in CD-1 mouse at 10 mg/kg, iv. Type of series: ADME, organism-based. The settings on record: in vivo, read-out: beta t1/2 (converted).
The nature of series [12]: Elimination half life in CD-1 mouse at 20 mg/kg, po. The class given is ADME, organism-based. The settings on record: in vivo, read-out: beta t1/2 (converted).
Series [13] is described as follows: Clearance in CD-1 mouse at 10 mg/kg, iv. Type of series: ADME, organism-based. The settings on record: in vivo.
A short description of series [14]: Apparent clearance in CD-1 mouse at 20 mg/kg, po. Type of series: ADME, organism-based. The settings on record: in vivo.
Series [15] is described as follows: Volume of distribution at steady state in CD-1 mouse at 10 mg/kg, iv. Type of series: ADME, organism-based. The settings on record: in vivo, read-out: Vdss.
Series [16] can be described thus: Apparent volume of distribution during terminal phase in CD-1 mouse at 20 mg/kg, po. The class given is ADME, organism-based. The settings on record: in vivo, read-out: Vz/F.
Series [17] relates to Mus musculus. As to the kind of experiment: Oral bioavailability in CD-1 mouse at 20 mg/kg. Type of series: ADME, organism-based. The settings on record: in vivo.
Series [18] is described as follows: Thermodynamic aqueous solubility of the compound in pH 7.4 phosphate buffer at 4.9 mg/ml after overnight incubation by CLND method. Type of series: physicochemical.
Series [19] is described as follows: Thermodynamic aqueous solubility of the compound in pH 7.4 phosphate buffer at 5.8 mg/ml after overnight incubation by CLND method. Type of series: physicochemical.
Series [20] in a line: Solubility of the compound in water at pH 7.4. Type of series: physicochemical.
Series [21] has as its system HCT-116. Kind of series: Growth inhibition of human HCT116 cells over-expressing DHODH at 2 times antiproliferative IC50 after 72 hrs in presence of 5 uM uridine by MTT assay. The class given is functional.
A short description of series [22]: Cmax in human at 8 mg/m2 administered as 10 mins iv infusion. The settings on record: in vivo. Also noted: route intravenous. Type of series: ADME, organism-based.
The nature of series [23]: Cmax in human at 16 mg/m2 administered as 10 mins iv infusion. Type of series: ADME, organism-based. Also noted: route intravenous. The settings on record: in vivo.
The nature of series [24]: AUC (0 to last) in human at 8 mg/m2 administered as 10 mins iv infusion. Type of series: ADME, organism-based. Also noted: time 0 - last, route intravenous. The settings on record: in vivo.
The nature of series [25]: AUC (0 to last) in human at 16 mg/m2 administered as 10 mins iv infusion. Type of series: ADME, organism-based. Also noted: route intravenous, time 0 - last. The settings on record: in vivo.
A short description of series [26]: AUC (0 to last) in human at 36 mg/m2, iv. The class given is ADME, organism-based. Also noted: route intravenous, time 0 - last. The settings on record: in vivo.
A short description of series [27]: Elimination half life in human at 8 mg/m2 administered as 10 mins iv infusion. The class given is ADME, organism-based. The settings on record: in vivo, read-out: beta t1/2 (converted).
Series [28] in a line: Elimination half life in human at 16 mg/m2 administered as 10 mins iv infusion. The class given is ADME, organism-based. The settings on record: in vivo, read-out: beta t1/2 (converted).
The nature of series [29]: Elimination half life in human at 36 mg/m2, iv. Type of series: ADME, organism-based. The settings on record: in vivo, read-out: beta t1/2 (converted).
In series [30] the test system is Homo sapiens. As to the kind of experiment: Clearance in human at 8 mg/m2 administered as 10 mins iv infusion. Type of series: ADME, organism-based. The settings on record: in vivo.
For series [31], the system named is Homo sapiens. Kind of series: Clearance in human at 16 mg/m2 administered as 10 mins iv infusion. Type of series: ADME, organism-based. The settings on record: in vivo.
Series [32] deals with Homo sapiens. Kind of series: Volume of distribution at steady state in human at 8 mg/m2 administered as 10 mins iv infusion. Type of series: ADME, organism-based. The settings on record: in vivo.
The test system of series [33] is Homo sapiens. As to the kind of experiment: Volume of distribution at steady state in human at 16 mg/m2 administered as 10 mins iv infusion. Type of series: ADME, organism-based. The settings on record: in vivo.
Series [34] deals with Homo sapiens. Kind of series: Volume of distribution at steady state in human at 36 mg/m2, iv. Type of series: ADME, organism-based. The settings on record: in vivo.
Series [35] is described as follows: Thermodynamic aqueous solubility of the compound in pH 7.4 phosphate buffer at 6.2 mg/ml after overnight incubation by CLND method. The class given is physicochemical.
Series [36] can be described thus: Thermodynamic aqueous solubility of the compound in pH 7.4 phosphate buffer at 6.4 mg/ml after overnight incubation by CLND method. Type of series: physicochemical.
The nature of series [37]: Thermodynamic aqueous solubility of the compound in pH 7.4 phosphate buffer at 6.7 mg/ml after overnight incubation by CLND method. The class given is physicochemical.
Series [38] is described as follows: Thermodynamic aqueous solubility of the compound in pH 7.4 phosphate buffer at 8.7 mg/ml after overnight incubation by CLND method. The class given is physicochemical.
In series [39] the target is Dihydroorotate dehydrogenase (quinone), mitochondrial (Homo sapiens, UniProt Q02127).
Sequence of Dihydroorotate dehydrogenase (quinone), mitochondrial (Q02127 whole entry): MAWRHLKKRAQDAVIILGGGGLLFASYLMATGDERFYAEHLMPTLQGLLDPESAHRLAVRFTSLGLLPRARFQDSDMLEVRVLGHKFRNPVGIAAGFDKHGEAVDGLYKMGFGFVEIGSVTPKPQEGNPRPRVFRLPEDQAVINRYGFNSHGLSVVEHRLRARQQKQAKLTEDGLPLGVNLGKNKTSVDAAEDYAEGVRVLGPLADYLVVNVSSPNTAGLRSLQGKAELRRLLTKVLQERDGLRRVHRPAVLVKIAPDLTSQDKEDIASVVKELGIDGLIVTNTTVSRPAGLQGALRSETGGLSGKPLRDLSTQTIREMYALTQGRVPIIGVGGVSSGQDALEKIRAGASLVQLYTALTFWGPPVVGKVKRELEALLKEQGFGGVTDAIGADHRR
Description: Inhibition of DHODH (unknown origin) expressed in Escherichia coli Rosetta2(DE3) assessed as reduction of DCIP using dihydroorotate as substrate preincubated for 30 mins followed by substrate addition in presence of CoQ10 measured after 1 hr
Series [40] is described as follows: Thermodynamic aqueous solubility of the compound in pH 7.4 phosphate buffer at 2.9 mg/ml after overnight incubation by CLND method. Type of series: physicochemical.

Usually IC50 stands for the concentration needed to halve the response being measured. The low end stands for greater potency in that assay, the high end for weaker potency in that assay. What is called Cmax is the highest concentration seen after dosing. What is called Tmax is the time from dosing to the highest level. In general, AUC(0-t) refers to exposure summed from dosing to a finite time, without extrapolation to infinity. Read a high AUC(0-t) as high exposure. A word on the AUC(0-inf): it is the area under the concentration-time curve extrapolated to infinity. A lower AUC(0-inf) goes with less exposure. The term clearance denotes the rate of elimination divided by the concentration. A word on the CL/F: it is the apparent clearance, not corrected for the fraction that reaches the circulation. What is called solubility is the dissolved amount per volume that the medium holds. Lower therefore signals little dissolved substance.

On to `Cc1c(-c2ccc(-c3cccnc3Cl)cc2)nc2ccc(F)cc2c1C(=O)O`, for which the IC50 in [1] is 7.18 µM; in series [2] it was 3.02 µM; in series [3] it was 9.28 µM. Also, the C0 in series [4] was 45.4 µg/mL. In addition, in series [5], the peak concentration (Cmax) was found to be 5.31 µg/mL. The Tmax in series [6] is 0.25 h. For the same compound, the results for the AUC(0-t) in series [7] and in series [8] were 32.3 µg·h/mL and 35.9 µg·h/mL, respectively. Moreover, the total exposure AUC(0-inf) turned out to be 32.3 µg·h/mL in [9] and 36 µg·h/mL in [10]. Also, the figures for the half-life in series [11] and in [12] were 2.73 h and 2.78 h, respectively. Also, in series [13], the clearance is 0.309 L/h/kg. In addition, the apparent clearance CL/F in series [14] is 0.555 L/h/kg. Moreover, the Vd in [15] stood at 0.496 L/kg. Moreover, the Vd/F in [16] stood at 2.23 L/kg. Besides, the F in [17] is on record as 56%. Further, the figures for the Therm_solubility in series [18] and in [19] were 982.1 µM and 1000.1 µM, respectively.
Turning to `Cc1c(-c2ccc(-c3ccccc3F)cc2)nc2ccc(F)cc2c1C(=O)O` [BREQUINAR], the solubility in [20] is below 0.1 mg/mL. Moreover, the IC50 came out at 1.69 µM in series [1], 0.679 µM in series [2] and 0.544 µM in series [3]. The “growth inhibition (GI)” value in series [21] is below 50%. The Cmax amounted to 1.8 µg/mL in series [22] and 2.7 µg/mL in series [23]. The AUC(0-t) at 10 min turned out to be 3.2 µg·h/mL in [24] and 3.8 µg·h/mL in [25]. The AUC(0-t) in series [26] is 20.7 µg·h/mL. Besides, the values for the half-life in [27], in [28] and in series [29] were 2.9 h, 3.1 h and 4.3 h, respectively. The CL in series [30] turned out to be 3.2 L/hr/m2; in series [31] it was 4.9 L/hr/m2. Besides, the Vdss in [32] is 8.2 L/m2; in series [33] it was 11.6 L/m2; in [34], 7.48 L/m2. Also, the Therm_solubility in series [35] turned out to be 1085.2 µM; in [36] it was 1048.6 µM.
Turning to `Cc1c(-c2ccc(-c3ccccc3)cc2)nc2cnccc2c1C(=O)O`, the half-inhibitory concentration (IC50) stood at 4.5 µM in series [1], 6.3 µM in series [2], 7.08 µM in [3] and 0.0283 µM in series [39]. The results for the Therm_solubility in series [37] and in [38] were 2628.4 µM and 3096.3 µM, respectively.
Turning to `O=C(O)c1cc(-c2ccc(C3CCCCC3)cc2)nc2ccccc12`, the concentration for half-maximal inhibition (IC50) in series [1] came to 5.88 µM; in [2] it was 4.22 µM. Also, in [21], the “growth inhibition (GI)” value is below 50%. The Therm_solubility in series [40] came out at 43.9 µM; in series [18], 48 µM.
